From patent US11383241B2, “Mechano-node pore sensing” (The Regents of the University of California, priority 2017, dated 2022)

Columns and labels:
Type in all cases: cell-based, human
[1] = tested on: MCF-7 cells; assay: mechano-NPS mechanical phenotyping of Latrunculin-treated MCF-7 cells; conditions: for cellular deformation in the transverse direction (δdeform) compared to control: one hour at 37° C.; for cellular deformation in the transverse direction (δdeform) compared to control / wCDI (whole cell deformability index) compared to untreated control cells: strain εavg˜0.3; for treated cells that instantaneously recover from deformation: ΔTr˜0 ms, untreated 38.3%
Description: (§1) Platform design, including geometry and sizing, may be configured and adapted to target indications, such as cell type and size range. In this example, the platform comprises of a 30 μm-high microfluidic channel embedded in a polydimethylsiloxane (PDMS) mold bonded to a glass substrate with pre-defined platinum (Pt) electrodes and gold (Au) contact pads (FIG. 1a). The central part of the channel, which we refer to as the “contraction channel”, is long (2055 μm) and narrow (10 or 12 μm-wide) and flanked on either side by a series of nodes and pores that are 85 μm and 25 μm wide, respectively (FIG. 1a, inset). The length of the contraction channel was chosen to provide sufficient time (˜30 ms) over which a cell experiences constant applied strain. The node and pore dimensions were chosen for sufficient signal-to noise ratios. Given the flexibility and ease of device design and fabrication, different contraction channel lengths and node and pore dimensions could be employed. Filters that are 25 μm in width (the width chosen based on the size range of cells measured in these studies, ˜15-20 μm in diameter) are included at the entrance of the microfluidic channel in order to remove cellular clusters that may otherwise clog the device. Applying a constant DC voltage (1 V) across the channel, we employ a four-terminal measurement technique^37-40 to measure the current pulses caused by cells transiting across the microfluidic channel when a non-pulsatile pressure of ˜21 kPa (determined by a commercial pressure gauge, SSI Technologies) is utilized (FIG. 1b and FIG. 2). After low-pass filtering all current versus time data, we employ custom-written software to extract both the magnitude and duration of each current sub-pulse (ΔInp, ΔIc, ΔTcont, and ΔTr in FIG. 1b; FIG. 3).
(§2) We disrupted actin polymerization with Latrunculin A and B (LatA and LatB, Enzo Life Sciences)^50. Prior to deformability measurements, MCF-7 and MCF-10A cells were incubated with 2.5 or 5 μg/mL LatA or LatB in each cell's respective growth medium for one hour at 37° C. and 5% CO2^29, 51, 52. Cells were then released from culture flasks with 0.25% trypsin/EDTA, rinsed once with PBS, centrifuged at […], and re-suspended in PBS at a concentration of ˜100,000 cells/mL. […] They were then permeabilized with 0.1% Triton-X 100 (Sigma-Aldrich) in PBS for 5 min. Cell nuclei and F-actin were then counter-stained with 4′,6-diamidino-2-phenylindole (DAPI, Sigma-Aldrich, 10236276001) and rhodamine phalloidin (Thermo Fisher Scientific, R415), respectively, per manufacturer's protocol, and then imaged with a Zeiss LSM710 confocal microscope.
(§3) To determine De, we measure polystyrene microspheres of known size with the microfluidic channel. Using the values of ΔI/I arising from the microspheres, along with the known values of L and d (the size of the microspheres in this instance), we can numerically solve for De in Equation (5). Once De is known, we can subsequently determine Dcell of a screened cell by numerically solving for d in Equation (5) using the obtained values of ΔInp/I. We can also determine the volume of the deformed cell, Vdeform, by the relationship^39, 57, 58, ΔIc/I˜Vdeform/Vcontraction, where Vcontraction is the volume of the contraction channel. To calculate Ldeform, we assume the cell undergoes an isometric deformation in the direction of both the channel's longitudinal axis and channel height, resulting in an oblate-spheroid shape. From the relationship between the volume and major radius of the oblate spheroid, Vdeform=πwcLdeform^2/6 where wc is the contraction-channel width, we can determine Ldeform from ΔIc/I. We quantify the transverse deformation of the cell, δdeform=Ldeform/Dcell, as it transits the contraction channel.
(§4) As a cell traverses through each section of the channel, the duration of the resulting sub-pulse produced by a cell corresponds to the cell's transit time (ΔT) through that part of the channel. […]

[2] = tested on: MCF-10A cells; assay: mechano-NPS mechanical phenotyping of Latrunculin-treated MCF-10A cells; conditions: for cellular deformation in the transverse direction (δdeform) compared to control: one hour at 37° C.; for cellular deformation in the transverse direction (δdeform) compared to control / wCDI (whole cell deformability index) compared to untreated control cells: strain εavg˜0.3; for treated cells that do not recover within the 40 ms time window (prolonged recovery): ΔTr>40 ms, untreated 9.7%
Description: as §1, §2, §3, §4

[3] = tested on: F-actin filaments; assay: F-actin staining (rhodamine phalloidin) and confocal microscopy of treated cells; conditions: MCF-7 and MCF-10A cells, after one hour incubation; more so with Lat-A than with Lat-B
Description: as §2

Structure (SMILES)	change in wCDI as a function of treatment concentration ([1]; 2.5 or 5 μg/mL)	cellular deformation in the transverse direction (δdeform) compared to control ([1]; 2.5 or 5 μg/mL)	wCDI (whole cell deformability index) compared to untreated control cells [1]	treated cells that instantaneously recover from deformation [1] [%]	change in wCDI as a function of treatment concentration ([2]; 2.5 or 5 μg/mL)	cellular deformation in the transverse direction (δdeform) compared to control ([2]; 2.5 or 5 μg/mL)	wCDI (whole cell deformability index) compared to untreated control cells [2]	treated cells that do not recover within the 40 ms time window (prolonged recovery) [2] [%]	F-actin filaments by staining and confocal microscopy [3]
C/C1=C/C(=O)O[C@@H]2C[C@@H](CC[C@H](C)/C=C\C=C\CC1)O[C@@](O)([C@@H]1CSC(=O)N1)C2 [LatA, Latrunculin A]	increased with concentration	significantly reduced	increased	8.1	increased with concentration	significantly reduced	increased	66.7	inhibited
C/C1=C/C(=O)O[C@@H]2C[C@@H](CC[C@H](C)/C=C\CC1)O[C@@](O)([C@@H]1CSC(=O)N1)C2 [LatB, Latrunculin B]		significantly reduced	increased	24.2		significantly reduced	no detectable change	41.4	inhibited
